The test system of assay [1] is E. coli NCTC 13353 (CTX-M15, OXA-1). The assay is described as follows: Antibacterial activity, MIC by agar dilution (CLSI). The assay is classed as cell-based. As to the method: (§1) The biological activity of representative compounds according to the invention against various bacterial strains was investigated. In a typical study, overnight grown bacterial cultures were diluted appropriately and inoculated on the agar media containing doubling dilutions of the test compounds. Observations for growth or no growth was performed after 16-20 hours of incubation at 35±2° C. in the ambient air. The overall procedure was performed as per Clinical and Laboratory Standards Institute (CLSI) recommendations, (Clinical and Laboratory Standards Institute (CLSI), Performance Standards for Antimicrobial Susceptibility Testing, 20th Informational Supplement, M07-A9, Volume 32, No. 2, 2012). Molten Mueller Hinton Agar (BD, USA) containing serial dilutions of each antibacterial agent were poured on to the plates and allowed to solidify. Appropriate suspensions from the freshly grown cultures were prepared in normal saline so that about 10^4 CFU/spot of the organism was delivered on to the drug containing agar plates using automated multipoint inoculator (Mast, UK). The plates were incubated in Biochemical oxygen demand (BOD) incubator at 37° C. for 18 hours and then examined for growth.
Table 2 details the antibacterial activity of representative compounds according to invention, against various Multi Drug Resistant (MDR) Gram-negative bacterial strains. The strains selected for study included E. coli NCTC 13353 producing CTX-M15 and OXA-1 beta-lactamase enzymes; K. pneumoniae H521 producing KPC, SHV, TEM beta-lactamase enzymes; and K. pneumoniae S48 producing NDM, SHV, TEM beta-lactamase enzymes. The activities are expressed as Minimum Inhibitory Concentrations (MICs) (mcg/ml).
On the technique in general: In agar dilution the substance is mixed into plates at graded concentrations.

Assay [2] relates to K. pneumoniae H521 (KPC, SHV, TEM). The assay is described as above. In kind it is cell-based. As to the method:
as §1
(§2) The strains selected for study included E. coli NCTC 13353 producing CTX-M15 and OXA-1 beta-lactamase enzymes; K. pneumoniae H521 producing KPC, SHV, TEM beta-lactamase enzymes; and K. pneumoniae S48 producing NDM, SHV, TEM beta-lactamase enzymes. The activities are expressed as Minimum Inhibitory Concentrations (MICs) (mcg/ml).

The test system of assay [3] is K. pneomoniae S48 (NDM, SHV, TEM). The description is as above. In kind it is cell-based, K. pneumoniae. Here is the method: as §1, §2
In assay [4] the target is T1, Class A beta-lactamase, K. pneumoniae ATCC 700603 (SHV 18) (Klebsiella pneumoniae, UniProt P0AD64, E235K/G234A/R39S).
T1 construct: preincubated mixture of crude enzyme and the agents; endogenous in cells; host or cells: K. pneumoniae ATCC 700603
The assay is described as follows: biochemical. As to the method:
(§3) Determination of enzyme inhibition activity: Concentration of the inhibitor required to inhibit 50% of enzymatic activity was measured by adding a chromogenic substrate, Nitrocefin (100 uM, 5 min) to the preincubated mixture of crude enzyme and the agents (37° C., 10 min). Absorbance was measured at 485 nm by UV-spectrophotometer. The IC50 was calculated by plotting absorbance against concentration through Sigmoidal dose response curve using Graph Pad software.
(§4) The enzyme inhibition was expressed as IC50.

For assay [5], the system named is T2, Class C beta-lactamase, E. coli M50 (CMY/DHA).
T2 construct: no borders, tags or purification printed
In kind it is biochemical. Particulars: read-out: Beta-lactamase enzyme inhibition IC50. As to the method: as §3, §4

For assay [6], the target named is T3, Class D beta-lactamase, A. baumannii NCTC 13301 (OXA 23) (Acinetobacter baumannii, UniProt Q9L4P2).
T3 construct: preincubated mixture of crude enzyme and the agents; endogenous in cells; host or cells: A. baumannii NCTC 13301
The assay is described as follows: Beta-lactamase enzyme inhibition (nitrocefin, crude enzyme). In kind it is biochemical. The note with it: Class D A. baumannii NCTC 13301 (OXA 23); read-out: Beta-lactamase enzyme inhibition IC50. As to the method:
as §3, §4

Setting [7] is: Escherichia coli, NCTC13353, Table 2, E. Coli NCTC 13353 (CTX-M15, OXA-1), read-out: MIC.
The mark [8] stands for this setting: Klebsiella pneumoniae, Table 2, K. pneumoniae H521 (KPC, SHV, TEM), read-out: MIC.
The mark [9] stands for this setting: Klebsiella pneumoniae, Table 2, K. pneomoniae S48 (NDM, SHV, TEM), read-out: MIC.

Converted amounts (≈) assume the structure as drawn. Like-named read-outs stand apart in the source and are kept apart here.

The term MIC denotes the smallest concentration in the dilution series that meets the test's criterion for growth inhibition. What is called IC50 is the point on the concentration scale where inhibition reaches its midpoint.

T3 sequence (Q9L4P2 18-273): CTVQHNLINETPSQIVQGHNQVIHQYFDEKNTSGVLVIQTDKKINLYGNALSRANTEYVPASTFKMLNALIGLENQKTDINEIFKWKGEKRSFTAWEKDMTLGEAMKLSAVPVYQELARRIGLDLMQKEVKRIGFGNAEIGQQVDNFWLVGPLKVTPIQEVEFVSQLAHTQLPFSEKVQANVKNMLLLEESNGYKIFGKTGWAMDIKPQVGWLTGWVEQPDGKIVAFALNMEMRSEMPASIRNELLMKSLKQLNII
T1 sequence (P0AD64 22-286 R39S/G234A/E235K): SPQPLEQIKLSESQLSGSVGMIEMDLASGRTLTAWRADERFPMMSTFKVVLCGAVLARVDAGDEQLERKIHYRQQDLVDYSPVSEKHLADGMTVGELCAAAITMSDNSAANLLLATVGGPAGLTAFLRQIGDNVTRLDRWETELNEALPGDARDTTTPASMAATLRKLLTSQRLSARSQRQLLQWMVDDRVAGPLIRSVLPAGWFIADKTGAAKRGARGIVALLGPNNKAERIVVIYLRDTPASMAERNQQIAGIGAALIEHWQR

As for `Nc1ccc(CC(=O)NNC(=O)[C@@H]2CC[C@@H]3CN2C(=O)N3OS(=O)(=O)O)cc1` [Example 11, (2S,5R)-sulfuric acid mono-[2-(N′-(4-aminophenyl-acetyl)-hydrazinocarbonyl)-7-oxo-1,6-diaza-bicyclo[3.2.1]oct-6-yl]ester], the MIC in assay [1] (Escherichia coli, NCTC13353) came out at 0.5 µg/mL (≈ 1.21 µM); in assay [2] (Klebsiella pneumoniae), 1 µg/mL (≈ 2.42 µM); in assay [3] (Klebsiella pneumoniae) it was 1 µg/mL (≈ 2.42 µM). The figures for the IC50 in assay [4], in assay [5] and in assay [6] were 32 nM, 10 nM and 408 nM, respectively.
With `Nc1ccccc1CC(=O)NNC(=O)[C@@H]1CC[C@@H]2CN1C(=O)N2OS(=O)(=O)O` [Example 21, (2S,5R)-sulfuric acid mono-[2-(N′-(2-aminophenyl-acetyl)-hydrazinocarbonyl)-7-oxo-1,6-diaza-bicyclo[3.2.1]oct-6-yl]ester], the MIC in assay [1] (Escherichia coli, NCTC13353) came out at 16 µg/mL (≈ 38.7 µM); in assay [2] (Klebsiella pneumoniae), 16 µg/mL (≈ 38.7 µM); in assay [3] (Klebsiella pneumoniae), 16 µg/mL (≈ 38.7 µM). For the same molecule, the concentration for half-maximal inhibition (IC50) turned out to be 35 nM in assay [4], 34 nM in assay [5] and 4510 nM in assay [6].
For `C[C@H](N)C(=O)Oc1ccc(CC(=O)NNC(=O)[C@@H]2CC[C@@H]3CN2C(=O)N3OS(=O)(=O)O)cc1` [Example 23, (S)-2-amino-propionic acid 4-{2-oxo-2-[N′-((2S,5R)-7-oxo-6-sulphooxy-1,6-diaza-bicyclo[3.2.1]octane-2-carbonyl)-hydrazino]ethyl}-phenyl ester], the minimum inhibitory concentration (MIC) came to 0.5 µg/mL (≈ 1.03 µM) in assay [1] (setting [7]), 2 µg/mL (≈ 4.12 µM) in assay [2] (setting [8]) and 0.5 µg/mL (≈ 1.03 µM) in assay [3] (setting [9]). For the same molecule, the values for the IC50 in assay [4], in assay [5] and in assay [6] were 3 nM, 23 nM and 240 nM, respectively.
For the molecule `CC(C)[C@H](N)C(=O)Oc1ccc(CC(=O)NNC(=O)[C@@H]2CC[C@@H]3CN2C(=O)N3OS(=O)(=O)O)cc1` [Example 24, (S)-2-amino-3-methyl-butyric acid 4-{2-oxo-2-[N′-((2S,5R)-7-oxo-6-sulphooxy-1,6-diaza-bicyclo[3.2.1]octane-2-carbonyl)-hydrazino]ethyl}-phenyl ester], the minimal inhibitory concentration (MIC) in assay [1] (setting [7]) stood at 1 µg/mL (≈ 1.95 µM); in assay [2] (setting [8]), 4 µg/mL (≈ 7.79 µM); in assay [3] (setting [9]) it was 0.5 µg/mL (≈ 0.974 µM). In addition, the results for the IC50 in assay [4], in assay [5] and in assay [6] were 2 nM, 5 nM and 151 nM, respectively.
Consider `O=C(Cc1ccc(OC(=O)[C@@H]2CCCN2)cc1)NNC(=O)[C@@H]1CC[C@@H]2CN1C(=O)N2OS(=O)(=O)O` [Example 25, (S)-pyrrolidine-2-carboxylic acid 4-{2-oxo-2-[N′-((2S,5R)-7-oxo-6-sulphooxy-1,6-diaza-bicyclo[3.2.1]octane-2-carbonyl)-hydrazino]ethyl}-phenyl ester], for which the MIC came out at 0.5 µg/mL (≈ 0.977 µM) in assay [1] (setting [7]), 1 µg/mL (≈ 1.95 µM) in assay [2] (setting [8]) and 1 µg/mL (≈ 1.95 µM) in assay [3] (setting [9]). Besides, the IC50 in assay [4] worked out at 16 nM; in assay [5] it was 11 nM; in assay [6], 329 nM.
For `NCCOc1ccc(CC(=O)NNC(=O)[C@@H]2CC[C@@H]3CN2C(=O)N3OS(=O)(=O)O)cc1` [Example 30, (2S,5R)-sulfuric acid mono-[2-(N′-{2-[4-(2-amino-ethoxy)-phenyl]-acetyl}-hydrazinocarbonyl)-7-oxo-1,6-diaza-bicyclo[3.2.1]oct-6-yl]ester], the figures for the minimal inhibitory concentration (MIC) in assay [1] (setting [7]), in assay [2] (setting [8]) and in assay [3] (setting [9]) were 0.5 µg/mL (≈ 1.09 µM), 2 µg/mL (≈ 4.37 µM) and 0.5 µg/mL (≈ 1.09 µM), respectively. For the same molecule, the IC50 in assay [4] amounted to 7 nM; in assay [5], 36 nM; in assay [6], 451 nM.
In the case of `NCCOc1cccc(CC(=O)NNC(=O)[C@@H]2CC[C@@H]3CN2C(=O)N3OS(=O)(=O)O)c1` [Example 32, (2S,5R)-sulfuric acid mono-[2-(N′-{2-[3-(2-amino-ethoxy)-phenyl]-acetyl}-hydrazinocarbonyl)-7-oxo-1,6-diaza-bicyclo[3.2.1]oct-6-yl]ester], the MIC in assay [1] (setting [7]), in assay [2] (setting [8]) and in assay [3] (setting [9]) was 0.5 µg/mL (≈ 1.09 µM) each time. Moreover, the results for the half-inhibitory concentration (IC50) in assay [4], in assay [5] and in assay [6] were 76 nM, 33 nM and 1770 nM, respectively.
Consider `NCCCOc1ccccc1CC(=O)NNC(=O)[C@@H]1CC[C@@H]2CN1C(=O)N2OS(=O)(=O)O` [Example 34, (2S,5R)-sulfuric acid mono-[2-(N′-{2-[2-(3-amino-propoxy)-phenyl]-acetyl}-hydrazinocarbonyl)-7-oxo-1,6-diaza-bicyclo[3.2.1]oct-6-yl]ester], for which the MIC in assay [1] (setting [7]), in assay [2] (setting [8]) and in assay [3] (setting [9]) was 2 µg/mL (≈ 4.24 µM) each time. In addition, the IC50 in assay [4] was 79 nM; in assay [5], 60 nM; in assay [6], 3810 nM.
For `NCCCOc1cccc(CC(=O)NNC(=O)[C@@H]2CC[C@@H]3CN2C(=O)N3OS(=O)(=O)O)c1` [Example 35, (2S,5R)-sulfuric acid mono-[2-(N′-{2-[3-(3-amino-propoxy)-phenyl]-acetyl}-hydrazinocarbonyl)-7-oxo-1,6-diaza-bicyclo[3.2.1]oct-6-yl]ester], the minimum inhibitory concentration (MIC) in assay [1] (setting [7]) is 0.5 µg/mL (≈ 1.06 µM); in assay [2] (setting [8]) it was 1 µg/mL (≈ 2.12 µM); in assay [3] (setting [9]) it was 0.5 µg/mL (≈ 1.06 µM). The IC50 stood at 712 nM in assay [4], 38 nM in assay [5] and 1910 nM in assay [6].
`C[C@H](N)COc1ccccc1CC(=O)NNC(=O)[C@@H]1CC[C@@H]2CN1C(=O)N2OS(=O)(=O)O` [Example 40, (2S,5R)-sulfuric acid mono-[2-(N′-{2-[2-((S)-2-amino-propoxy)-phenyl]-acetyl}-hydrazinocarbonyl)-7-oxo-1,6-diaza-bicyclo[3.2.1]oct-6-yl]ester]: the MIC in assay [1] (setting [7]), in assay [2] (setting [8]) and in assay [3] (setting [9]) was 2 µg/mL (≈ 4.24 µM) in each case. For the same molecule, the IC50 in assay [4] was determined as 110 nM; in assay [5], 99 nM; in assay [6], 1570 nM.
For `C[C@H](N)COc1cccc(CC(=O)NNC(=O)[C@@H]2CC[C@@H]3CN2C(=O)N3OS(=O)(=O)O)c1` [Example 41, (2S,5R)-sulfuric acid mono-[2-(N′-{2-[3-((S)-2-amino-propoxy)-phenyl]-acetyl}-hydrazinocarbonyl)-7-oxo-1,6-diaza-bicyclo[3.2.1]oct-6-yl]ester], the MIC in assay [1] (setting [7]) came out at 0.5 µg/mL (≈ 1.06 µM); in assay [2] (setting [8]) it was 1 µg/mL (≈ 2.12 µM); in assay [3] (setting [9]), 0.5 µg/mL (≈ 1.06 µM). Further, the IC50 is 38 nM in assay [4], 53 nM in assay [5] and 990 nM in assay [6].
With `C[C@@H](N)COc1cccc(CC(=O)NNC(=O)[C@@H]2CC[C@@H]3CN2C(=O)N3OS(=O)(=O)O)c1` [Example 42, (2S,5R)-sulfuric acid mono-[2-(N′-{2-[3-((R)-2-amino-propoxy)-phenyl]-acetyl}-hydrazinocarbonyl)-7-oxo-1,6-diaza-bicyclo[3.2.1]oct-6-yl]ester], the MIC was found to be 1 µg/mL (≈ 2.12 µM) in assay [1] (setting [7]), 1 µg/mL (≈ 2.12 µM) in assay [2] (setting [8]) and 0.5 µg/mL (≈ 1.06 µM) in assay [3] (setting [9]). The IC50 turned out to be 36 nM in assay [4], 32 nM in assay [5] and 1230 nM in assay [6].
Consider “sodium salt of (2S,5R)-sulfuric acid mono-[2-(N′-(3,3-diphenyl-propionyl)-hydrazinocarbonyl)-7-oxo-1,6-diaza-bicyclo[3.2.1]oct-6-yl]ester [Example 7]”, for which the MIC in assay [1] (Table 2, E. Coli NCTC 13353 (CTX-M15, OXA-1)) was above 32 µg/mL; in assay [2] (Table 2, K. pneumoniae H521 (KPC, SHV, TEM)), above 32 µg/mL; in assay [3] (Table 2, K. pneomoniae S48 (NDM, SHV, TEM)), above 32 µg/mL. Besides, the 50% inhibitory concentration (IC50) amounted to 14 nM in assay [5] and 89 nM in assay [6].

The record behind these values is patent US9822115B2, “Nitrogen containing compounds and their use as antibacterial agents” (WOCKHARDT LIMITED, priority 2014, dated 2017).
